Assay [1] relates to Rab10 pThr73. Put plainly: Rab10 Thr73 dephosphorylation (immunoblot) in LRRK2^G2019S MEFs. It counts as cell-based. The settings on record: Mus musculus, read-out: pRab10 inhibited in LRRK2^G2019S MEFs. A general note: Immunoblotting shows a protein as a band on a membrane.
The test system of assay [2] is Rab10 pThr73. Nature of the assay: Rab10 Thr73 dephosphorylation (immunoblot) in WT MEFs. It counts as cell-based, mouse. Particulars: Mus musculus, read-out: pRab10 inhibited in WT MEFs. Summed up:
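Wild-type mouse embryonic fibroblasts in 6-well plates were treated with LRRK2 PROTACs, with two biological replicates per condition. Cells were washed in PBS and lysed on ice in buffer containing phosphatase and protease inhibitors plus 1% Triton X-100, then clarified at 15,000 g. Rab10 Thr73 phosphorylation was measured by quantitative immunoblotting of 15 to 20 μg protein on 4-12% Bis-Tris gels.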

Assay [3] deals with Rab10 pThr73. Nature of the assay: Rab10 Thr73 dephosphorylation (immunoblot) in LRRK2^G2019S MEFs. It counts as cell-based, mouse. Particulars: Mus musculus, read-out: pRab10 inhibited in LRRK2^G2019S MEFs.

Consider `CNc1nc(Nc2ccc(C(=O)N3CCN(CCOCCOCCOc4cc(-c5scnc5C)ccc4CNC(=O)[C@@H]4C[C@@H](O)CN4C(=O)[C@@H](NC(=O)C4(F)CC4)C(C)(C)C)CC3)cc2OC)ncc1Cl` [SD12, (2S,4R)—N-(2-(2-(2-(2-(4-(4-((5-chloro-4-(methylamino)pyrimidin-2-yl)amino)-3-methoxybenzoyl)piperazin-1-yl)ethoxy)ethoxy)ethoxy)-4-(4-methylthiazol-5-yl)benzyl)-1-((S)-2-(1-fluorocyclopropane-1-carboxamido)-3,3-dimethylbutanoyl)-4-hydroxypyrrolidine-2-carboxamide], for which the inhibition at 0.033 µM in assay [1] (33 nM/4 h treatment) lay in the range of 0 to 60%; in assay [1] (33 nM/24 h treatment) it was 0 to 70%; in assay [2] (33 nM/4 h treatment), 0 to 25%; in assay [2] (33 nM/24 h treatment), 10 to 40%. Besides, the inhibition at 1 µM in assay [2] (1 μM/4 h treatment) was 18 to 90%; in assay [2] (1 μM/24 h treatment), 30 to 90%; in assay [3] (1 μM/4 h treatment) it was 30 to 95%; in assay [3] (1 μM/24 h treatment), 30 to 100%.
`CNc1nc(Nc2ccc(C(=O)N3CCN(CCOCCOCCOc4cccc(C(=O)c5csc(C6CCCN6C(=O)[C@@H](NC(=O)[C@H](C)NC)C6CCCCC6)n5)c4)CC3)cc2OC)ncc1Cl` (stereo partly drawn) [SD113, (S)—N—((S)-2-((S)-2-(4-(3-(2-(2-(2-(4-(4-((5-chloro-4-(methylamino)pyrimidin-2-yl)amino)-3-methoxybenzoyl)piperazin-1-yl)ethoxy)ethoxy)ethoxy)benzoyl)thiazol-2-yl)pyrrolidin-1-yl)-1-cyclohexyl-2-oxoethyl)-2-(methylamino)propenamide]: the inhibition at 0.033 µM was in the range of 0 to 60% in assay [1] (33 nM/4 h treatment), 0 to 70% in assay [1] (33 nM/24 h treatment), 0 to 25% in assay [2] (33 nM/4 h treatment) and 10 to 40% in assay [2] (33 nM/24 h treatment). The inhibition at 1 µM was 18 to 90% in assay [2] (1 μM/4 h treatment), 30 to 90% in assay [2] (1 μM/24 h treatment), 30 to 95% in assay [3] (1 μM/4 h treatment) and 30 to 100% in assay [3] (1 μM/24 h treatment).
Turning to `CNc1nc(Nc2ccc(C(=O)N3CCN(CC4CC[C@H](CSC(C)(C)C(NC(=O)C5(F)CC5)C(=O)N5C[C@H](O)C[C@H]5C(=O)NCc5ccc(-c6scnc6C)cc5)C4)CC3)cc2OC)ncc1Cl` (stereo in doubt) [XL02093, (2S,4R)-1-((S)-3-((((1S,3S)-3-((4-(4-((5-chloro-4-(methylamino)pyrimidin-2-yl)amino)-3-methoxybenzoyl)piperazin-1-yl)methyl)cyclopentyl)methyl)thio)-2-(1-fluorocyclopropane-1-carboxamido)-3-methylbutanoyl)-4-hydroxy-N-(4-(4-methylthiazol-5-yl)benzyl)pyrrolidine-2-carboxamide], the inhibition at 0.033 µM is 20 to 50% in assay [1] (33 nM/4 h treatment) and 20 to 40% in assay [2] (33 nM/4 h treatment). The inhibition at 1 µM in assay [2] (1 μM/4 h treatment) is 75 to 90%; in assay [3] (1 μM/4 h treatment) it was 80 to 100%.
As for `CNc1nc(Nc2ccc(OCCOCCOCCOCCSC(C)(C)[C@@H](NC(=O)C3(F)CC3)C(=O)N3C[C@H](O)C[C@H]3C(=O)NCc3ccc(-c4scnc4C)cc3)cc2OC)ncc1Cl` [XL01145, (2S,4R)-1-((S)-1-(4-((5-chloro-4-(methylamino)pyrimidin-2-yl)amino)-3-methoxyphenoxy)-14-(1-fluorocyclopropane-1-carboxamido)-13,13-dimethyl-3,6,9-trioxa-12-thiapentadecan-15-oyl)-4-hydroxy-N-(4-(4-methylthiazol-5-yl)benzyl)pyrrolidine-2-carboxamide], the inhibition at 0.033 µM in assay [1] (33 nM/4 h treatment) lay in the range of 0 to 70%; in assay [1] (33 nM/24 h treatment), 0 to 90%; in assay [2] (33 nM/4 h treatment), 0 to 40%; in assay [2] (33 nM/24 h treatment), 0 to 60%. Moreover, the inhibition at 1 µM in assay [2] (1 μM/4 h treatment) lay in the range of 10 to 95%; in assay [2] (1 μM/24 h treatment) it was 30 to 100%; in assay [3] (1 μM/4 h treatment), 20 to 100%; in assay [3] (1 μM/24 h treatment), 10 to 100%.
As to `CNc1nc(Nc2ccc(OCCOCCCSC(C)(C)[C@@H](NC(=O)C3(F)CC3)C(=O)N3C[C@H](O)C[C@H]3C(=O)NCc3ccc(-c4scnc4C)cc3)cc2OC)ncc1Cl` [XL01149, (2S,4R)-1-((S)-3-((3-(2-(4-((5-chloro-4-(methylamino)pyrimidin-2-yl)amino)-3-methoxyphenoxy)ethoxy)propyl)thio)-2-(1-fluorocyclopropane-1-carboxamido)-3-methylbutanoyl)-4-hydroxy-N-(4-(4-methylthiazol-5-yl)benzyl)pyrrolidine-2-carboxamide], the inhibition at 0.033 µM in assay [1] (33 nM/4 h treatment) is 0 to 70%; in assay [1] (33 nM/24 h treatment) it was 0 to 90%; in assay [2] (33 nM/4 h treatment), 0 to 40%; in assay [2] (33 nM/24 h treatment) it was 0 to 60%. Also, the inhibition at 1 µM was in the range of 10 to 95% in assay [2] (1 μM/4 h treatment), 30 to 100% in assay [2] (1 μM/24 h treatment), 20 to 100% in assay [3] (1 μM/4 h treatment) and 10 to 100% in assay [3] (1 μM/24 h treatment).
Regarding `CNc1nc(Nc2ccc(C(=O)N3CCN(C[C@@H]4CCC[C@H](CSC(C)(C)[C@H](NC(=O)C5(F)CC5)C(=O)N5C[C@H](O)C[C@H]5C(=O)NCc5ccc(-c6scnc6C)cc5)C4)CC3)cc2OC)ncc1Cl` [XL02063, (2S,4R)-1-((R)-3-((((1S,3R)-3-((4-(4-((5-chloro-4-(methylamino)pyrimidin-2-yl)amino)-3-methoxybenzoyl)piperazin-1-yl)methyl)cyclohexyl)methyl)thio)-2-(1-fluorocyclopropane-1-carboxamido)-3-methylbutanoyl)-4-hydroxy-N-(4-(4-methylthiazol-5-yl)benzyl)pyrrolidine-2-carboxamide], the inhibition at 0.033 µM fell in the range of 0 to 90% in assay [1] (33 nM/4 h treatment), 30 to 90% in assay [1] (33 nM/24 h treatment), 0 to 70% in assay [2] (33 nM/4 h treatment) and 0 to 80% in assay [2] (33 nM/24 h treatment). The inhibition at 1 µM in assay [2] (1 μM/4 h treatment) lay in the range of 80 to 100%; in assay [2] (1 μM/24 h treatment), 80 to 100%; in assay [3] (1 μM/4 h treatment) it was 10 to 100%; in assay [3] (1 μM/24 h treatment), 80 to 100%.
As for `CNc1nc(Nc2ccc(C(=O)N3CCN(C[C@H]4CC[C@@H](CSC(C)(C)[C@H](NC(=O)C5(F)CC5)C(=O)N5C[C@H](O)CC5C(=O)NCc5ccc(-c6scnc6C)cc5F)CC4)CC3)cc2OC)ncc1Cl` (stereo partly drawn) [XL02058, (2S,4R)-1-((R)-3-((((1s,4S)-4-((4-(4-((5-chloro-4-(methylamino)pyrimidin-2-yl)amino)-3-methoxybenzoyl)piperazin-1-yl)methyl)cyclohexyl)methyl)thio)-2-(1-fluorocyclopropane-1-carboxamido)-3-methylbutanoyl)-N-(2-fluoro-4-(4-methylthiazol-5-yl)benzyl)-4-hydroxypyrrolidine-2-carboxamide], the inhibition at 0.033 µM in assay [1] (33 nM/4 h treatment) fell in the range of 0 to 90%; in assay [1] (33 nM/24 h treatment), 30 to 90%; in assay [2] (33 nM/4 h treatment), 0 to 70%; in assay [2] (33 nM/24 h treatment) it was 0 to 80%. Further, the inhibition at 1 µM in assay [2] (1 μM/4 h treatment) fell in the range of 80 to 100%; in assay [2] (1 μM/24 h treatment), 80 to 100%; in assay [3] (1 μM/4 h treatment), 10 to 100%; in assay [3] (1 μM/24 h treatment), 80 to 100%.
As for `CNc1nc(Nc2ccc(C(=O)N3CCN(CCCOc4cc(-c5scnc5C)ccc4CNC(=O)[C@@H]4C[C@@H](O)CN4C(=O)[C@@H](NC(=O)C4(F)CC4)C(C)(C)C)CC3)cc2OC)ncc1Cl` [SD13, (2S,4R)—N-(2-(3-(4-(4-((5-chloro-4-(methylamino)pyrimidin-2-yl)amino)-3-methoxybenzoyl)piperazin-1-yl)propoxy)-4-(4-methylthiazol-5-yl)benzyl)-1-((S)-2-(1-fluorocyclopropane-1-carboxamido)-3,3-dimethylbutanoyl)-4-hydroxypyrrolidine-2-carboxamide], the inhibition at 0.033 µM in assay [1] (33 nM/4 h treatment) was 0 to 60%; in assay [1] (33 nM/24 h treatment), 0 to 70%; in assay [2] (33 nM/4 h treatment) it was 0 to 25%; in assay [2] (33 nM/24 h treatment), 10 to 40%. In addition, the inhibition at 1 µM in assay [2] (1 μM/4 h treatment) was 18 to 90%; in assay [2] (1 μM/24 h treatment), 30 to 90%; in assay [3] (1 μM/4 h treatment), 30 to 95%; in assay [3] (1 μM/24 h treatment) it was 30 to 100%.
Regarding `CNc1nc(Nc2ccc(C(=O)N3CCN(CCCSC(C)(C)[C@H](NC(=O)C4(F)CC4)C(=O)N4C[C@H](O)C[C@H]4C(=O)NCc4ccc(-c5scnc5C)c(F)c4)CC3)cc2OC)ncc1Cl` [XL01122, (2S,4R)-1-((R)-3-((3-(4-(4-((5-chloro-4-(methylamino)pyrimidin-2-yl)amino)-3-methoxybenzoyl)piperazin-1-yl)propyl)thio)-2-(1-fluorocyclopropane-1-carboxamido)-3-methylbutanoyl)-N-(3-fluoro-4-(4-methylthiazol-5-yl)benzyl)-4-hydroxypyrrolidine-2-carboxamide], the inhibition at 0.033 µM was in the range of 0 to 70% in assay [1] (33 nM/4 h treatment), 0 to 90% in assay [1] (33 nM/24 h treatment), 0 to 40% in assay [2] (33 nM/4 h treatment) and 0 to 60% in assay [2] (33 nM/24 h treatment). Also, the inhibition at 1 µM in assay [2] (1 μM/4 h treatment) was 10 to 95%; in assay [2] (1 μM/24 h treatment) it was 30 to 100%; in assay [3] (1 μM/4 h treatment), 20 to 100%; in assay [3] (1 μM/24 h treatment) it was 10 to 100%.

The record behind these values is US20260001875A1, “AMINOPYRIMIDINYL DERIVATIVES FOR THE TREATMENT OF PARKINSON'S DISEASE” (UNIVERSITY OF DUNDEE, priority 2022, published 2026).
